Measured values from patent publication US12357695B2, “Peptides and nanoparticles for intracellular delivery of molecules” (AADIGEN, LLC, priority 2019, dated 2025).
Entries after “also recorded” stand apart in the source; their conditions may differ. Square brackets hold non-standard residues; d marks the D form. Ends that are not written are not given here. Stearyl = stearyl group covalently linked to the N-terminus; Aun = NCCCCCCCCCCC(=O)O; βAla = NCCC(=O)O

Assays:
mice [1] = assay: In vivo delivery of Luciferase mRNA, intravenous administration, bioluminescence imaging; details: 5 μg Luc mRNA; for mRNA / luciferase expression and tissues: single dose
Experimental: FIGS. 4A-4D show the potency of ADGN-peptide variants for in vivo delivery of Luciferase mRNA via intravenous administration in mice. ADGN-peptide/luc mRNA particles containing 5 μg mRNA were formed in sterile water, and then diluted in 5% sucrose. Mice received IV injection of 100 μl ADGN-peptide/mRNA complexes. mRNA LUC expression was monitored by bioluminescence imaging after 12 h, 24 h, 48 h and 72 h. FIG. 4B show bioluminescence imaging at 24 hr in control and treated groups. Semi-quantitative data of luciferase signal in the liver (C) and in the lung (D) were obtained using the manufacturer's software (Living Image; PerkinElmer). Results were then expressed as values relative to day 0.
(§1) Stable ADGN-peptides/mRNA were evaluated for in vivo delivery of Luciferase mRNA via intravenous and intramuscular administrations. Animals were treated with single dose of 5 moU modified Luc mRNA of 5 μg. 5 moU modified Luc mRNA (5 μg) in sterile water (GIBCO) were mixed with ADGN peptide (sterile water), volume for each sample was adjusted to 100 μl, with sterile water containing 5% Sucrose. Samples were mixed gently with vortex for 1 minute at low speed and incubated for 30 min at room temperature. Samples were filtered on 0.45 μm PES filters prior administration. For IV administration Mice received 100 μl intravenous (IV) injection of either ADGN-106/mRNA, ADGN-100/mRNA, ADGN-106RI/mRNA, ADGN-100-stearyl/mRNA, ADGN-100Hydro1/mRNA, ADGN-100Hydro2 or ADGN/mRNA complexes containing 10% of ADGN-100PEG (3 animals per group). As control, mice from group 3 (2 animals per group) received IV injection of 100 μl of naked 5 moU modified Luc mRNA (5 μg). For IM administration, mice received 25 μl (5 μg mRNA) IV injection of either ADGN-100/mRNA, ADGN-106/mRNA, ADGN-106RI/mRNA or ADGN/mRNA complexes containing 10% or 20% of ADGN-100PEG (2 animals per group). As control, mice from group 3 (2 animals per group) received IV injection of 25 μl of naked 5 moU modified Luc mRNA (5 μg).
(§2) mRNA Luc expression was monitored by bioluminescence. Bioluminescence imaging was performed after 12, 24, 48 and 72 hrs. Mice received an i.p. injection of 150 μg/g luciferin for noninvasive bioluminescence imaging (IVIS Kinetic; PerkinElmer, Waltham, MA, USA).

mice [2] = assay: In vivo delivery of pGL4 plasmid DNA, intramuscular administration, bioluminescence imaging; details: IM, 2.5 μg pGL4 plasmid
Experimental: FIGS. 7A-7B show the potency of ADGN-peptide variants for in vivo delivery of Luciferase expressing plasmid pGL4 via intramuscular administration in mice. ADGN-peptide/pGL4 luc particles containing 2.5 μg plasmid DNA were formed in sterile water, and then diluted in 5% sucrose. Mice received IV injection of 25 μl ADGN-peptide/pGL4 complexes. Luciferase expression was monitored by bioluminescence imaging after 12 h, 24 h and 48h (A). FIG. 7B show bioluminescence imaging at 24 hr in control and treated groups.
Stable ADGN-peptides/pGL4.11 DNA were evaluated for in vivo delivery of Luciferase mRNA via intravenous and intramuscular administrations. Animals were treated with single dose of pGL4.11 plasmid DNA of 5 μg. via IV and 2.5 μg via intramuscular administration.
For IM administration, mice received 25 μl (2.5 μg of pGL4 plasmid) IV injection of either ADGN-100/PGL4, ADGN-106/PGL4, ADGN-100RI/PGL4, ADGN-100hydro1/PGL4, ADGN-100hydro6/PGL4, ADGN-100 stearyl/PGL4 or ADGN-100/PGL4 complexes containing 10% or 20% of ADGN-100PEG (2 animals per group). As control, mice from group 3 (2 animals per group) received IV injection of 25 μl of naked PGL4 plasmid (2.5 μg).
Luciferase expression was monitored by bioluminescence. Bioluminescence imaging was performed after 12, 24, 48 and 72 hrs. Mice received an i.p. injection of 150 μg/g luciferin for noninvasive bioluminescence imaging (IVIS Kinetic; PerkinElmer, Waltham, MA, USA).

mice or rat models = assay: Summary of cargo delivery to targeted organ (Table 1); format: in vivo
Source text: Table 1 lists a summary of cell-penetrating peptides that have been proven successful in delivering various cargo molecules to on or more targeted organ (e.g., by intravenous (IV), intramuscular (IM), or subcutaneous (SQ) administration, or intratraccheal instillation or nebulization (NB)) in mice or rat models.

[3] = DLS particle size and level of aggregation of ADGN-peptide/pGL4 plasmid DNA complexes; format: physicochemical; details: pGL4 5.6 kb plasmid
Experimental: Complex formation with plasmid DNA. The following protocols were used for the transfection of 2-5 106 Cells or Cells at confluency of about 70-80% cultured in 24 well plates. ADGN peptide/plasmid DNA pGL4 particles were prepared at a 20:1 molar ratio of ADGN-Peptide/pGL4. using (0.2 μg). PGL4 plasmid (0.15 μg) was diluted in 20 μl of sterile water (GIBCO) at room temperature. 10 μl Final Peptide Solution was added to obtain a total volume of 20 μl. The volume was adjusted to 50 μl with sterile water and was mixed gently with vortex 1 min low speed and incubated 30 min at room temperature. Then the volume was made up to 100 μl by adding sterile water containing 5% sucrose, and the solution was mixed gently with vortex 1 min low speed and incubate 5 min at 37° C. and then was proceeded to cell transfection.
The ability of the different ADGN-peptides to form stable nanoparticles with DNA pGL4 a 5.6KpB plasmid expression Luciferase was analyzed. The particle sizes and level of aggregation were measured on DLS NanoZS (Malvern Ltd). The mean size and the polydispersity of the ADGN/plasmid DNA complexes were determined at 25° C. for 3 minute per measurement. In order to remove large particles, ADGN/plasmid DNA complexed were filtered using either PES or PVDF 0.45 μm filters. Data are shown in FIG. 10 for a mean of 3 separate experiments.

mice [4] = assay: In vivo delivery of Luciferase mRNA, intramuscular administration, bioluminescence imaging; details: IM, Luc mRNA
Experimental: FIGS. 5A-5B show the potency of ADGN-peptide variants for in vivo delivery of Luciferase mRNA via intramuscular administration in mice. ADGN-peptide/luc mRNA particles containing 2.5 μg mRNA were formed in sterile water, and then diluted in 5% sucrose. Mice received […] injection o 25 μl ADGN-peptide/mRNA complexes. mRNA LUC expression was monitored by bioluminescence imaging after 12 h, 24 h and 48h (A). FIG. 5B show bioluminescence imaging at 24 hr in control and treated groups.
as §1, §2

[5] = cargoes and route (IV, IM, SQ, NB) per peptide as listed in Table 1

## Ac-GYVS-(G)4-KWRSALWRWRLWRVRSWSR-NH2 (Ac-GYVSGGGGKWRSALWRWRLWRVRSWSR-NH2) [ADGN-100 hydro-2]
Mice [1]
  mRNA / luciferase expression and tissues: negligible luciferase expression
Mice [2]
  luciferase expression: no significant expression

## Ac-GYVS-Aun-KWRSALWRWRLWRVRSWSR-NH2 (Ac-GYVS[Aun]KWRSALWRWRLWRVRSWSR-NH2; SMILES CC(=O)NCC(=O)N[C@@H](Cc1ccc(O)cc1)C(=O)N[C@H](C(=O)N[C@@H](CO)C(=O)NCCCCCCCCCCC(=O)N[C@@H](CCCCN)C(=O)N[C@@H](Cc1c[nH]c2ccccc12)C(=O)N[C@@H](CCCNC(=N)N)C(=O)N[C@@H](CO)C(=O)N[C@@H](C)C(=O)N[C@@H](CC(C)C)C(=O)N[C@@H](Cc1c[nH]c2ccccc12)C(=O)N[C@@H](CCCNC(=N)N)C(=O)N[C@@H](Cc1c[nH]c2ccccc12)C(=O)N[C@@H](CCCNC(=N)N)C(=O)N[C@@H](CC(C)C)C(=O)N[C@@H](Cc1c[nH]c2ccccc12)C(=O)N[C@@H](CCCNC(=N)N)C(=O)N[C@H](C(=O)N[C@@H](CCCNC(=N)N)C(=O)N[C@@H](CO)C(=O)N[C@@H](Cc1c[nH]c2ccccc12)C(=O)N[C@@H](CO)C(=O)N[C@@H](CCCNC(=N)N)C(N)=O)C(C)C)C(C)C) [ADGN-100 hydro-6]
Mice [2]
  luciferase expression: mediated Luciferase expression following IM administration

## Stearyl-βA-KWRSALWRWRLWRVRSWSR-NH2 (Stearyl-[βAla]KWRSALWRWRLWRVRSWSR-NH2; not fully specified; printed as Stearyl-βA-KWRSALWRWRLWRVRSWSR-NH2) [ADGN-100 Stearyl]
Mice [1]
  mRNA / luciferase expression and tissues: mainly observed in the liver and at lower level in the lung and the kidney
Mice or rat models; [5]
  Targeted Organ: Lung/Liver/; also recorded: Kidney/Pancreas

## akwllrwlsrwlrwlarwlr ([dA][dK][dW][dL][dL][dR][dW][dL][dS][dR][dW][dL][dR][dW][dL][dA][dR][dW][dL][dR]; also: retro-inverso) [ADGN-106-RI]
Mice [1]; all / different tissues
  increase of luciferase expression / efficiency relative to ADGN-106: 2 fold
Mice [1]
  mRNA / luciferase expression and tissues: mainly observed in the liver and at lower level in the lung and the kidney
[3]
  ability to form stable nanoparticles/complex with plasmid DNA: did not improve the potency of ADGN-106 to form stable particle with plasmid
Mice or rat models; [5]
  Targeted Organ: Liver/Lung
Mice [4]
  increase of luciferase expression in the muscle / efficiency relative to ADGN-106: 6 fold
  luciferase expression: mediated Luciferase expression following intramuscular (IM) administration

## rswsrvrwlrwrwgasrwk ([dR][dS][dW][dS][dR][dV][dR][dW][dL][dR][dW][dR][dW]G[dA][dS][dR][dW][dK]; also: retro-inverso) [ADGN-100-RI]
[3]
  ability to form stable nanoparticles/complex with plasmid DNA: did not modifie the ability of the peptide to form stable complex with plasmid DNA
Mice [2]
  increase of luciferase expression in the muscle / efficiency relative to ADGN-100: 6 fold
  luciferase expression: mediated Luciferase expression following IM administration
Mice or rat models; [5]
  Targeted Organ: Liver/Lung/; also recorded: Kidney/Spleen

## βAKWRSAGWRWRLW RVRSWSR (AKWRSAGWRWRLWRVRSWSR; N-terminal beta-alanine; VARIANT 1 beta-A) [ADGN-100]
Mice [1]
  mRNA / luciferase expression and tissues: mainly observed in the liver and at lower level in the lung and the kidney
Mice [2]
  luciferase expression: mediated Luciferase expression following IM administration
Mice or rat models; cargoes and route (IV, IM, SQ, NB) per peptide as listed in Table 1, listed as ADGN-100a
  Targeted Organ: Lung/Liver/; also recorded: Kidney/Pancreas
Mice [4]
  luciferase expression: no significant expression

## βALWRALWRLWRSLWRLLWKA ([βAla]LWRALWRLWRSLWRLLWKA) [ADGN-106]
Mice [1]
  efficiency relative to ADGN-100: 4 folds
  efficiency relative to ADGN-100 stearyl: 2 folds
  mRNA / luciferase expression and tissues: mainly observed in the liver and at lower level in the lung and the kidney
[3]
  ability to form stable nanoparticles/complex with plasmid DNA: large size and a the poor stability
Mice [2]
  luciferase expression: no significant expression
Mice or rat models; [5]
  Targeted Organ: Liver/Lung
Mice [4]
  luciferase expression: mediated Luciferase expression following intramuscular (IM) administration
